These results are taken from patent US12441703B2, “Carboxamides as modulators of sodium channels” (VERTEX PHARMACEUTICALS INCORPORATED, priority 2019, dated 2025).

Sequence of human NaV 1.8 (Q9Y5Y9 whole entry, looked up, the tested form may be a part): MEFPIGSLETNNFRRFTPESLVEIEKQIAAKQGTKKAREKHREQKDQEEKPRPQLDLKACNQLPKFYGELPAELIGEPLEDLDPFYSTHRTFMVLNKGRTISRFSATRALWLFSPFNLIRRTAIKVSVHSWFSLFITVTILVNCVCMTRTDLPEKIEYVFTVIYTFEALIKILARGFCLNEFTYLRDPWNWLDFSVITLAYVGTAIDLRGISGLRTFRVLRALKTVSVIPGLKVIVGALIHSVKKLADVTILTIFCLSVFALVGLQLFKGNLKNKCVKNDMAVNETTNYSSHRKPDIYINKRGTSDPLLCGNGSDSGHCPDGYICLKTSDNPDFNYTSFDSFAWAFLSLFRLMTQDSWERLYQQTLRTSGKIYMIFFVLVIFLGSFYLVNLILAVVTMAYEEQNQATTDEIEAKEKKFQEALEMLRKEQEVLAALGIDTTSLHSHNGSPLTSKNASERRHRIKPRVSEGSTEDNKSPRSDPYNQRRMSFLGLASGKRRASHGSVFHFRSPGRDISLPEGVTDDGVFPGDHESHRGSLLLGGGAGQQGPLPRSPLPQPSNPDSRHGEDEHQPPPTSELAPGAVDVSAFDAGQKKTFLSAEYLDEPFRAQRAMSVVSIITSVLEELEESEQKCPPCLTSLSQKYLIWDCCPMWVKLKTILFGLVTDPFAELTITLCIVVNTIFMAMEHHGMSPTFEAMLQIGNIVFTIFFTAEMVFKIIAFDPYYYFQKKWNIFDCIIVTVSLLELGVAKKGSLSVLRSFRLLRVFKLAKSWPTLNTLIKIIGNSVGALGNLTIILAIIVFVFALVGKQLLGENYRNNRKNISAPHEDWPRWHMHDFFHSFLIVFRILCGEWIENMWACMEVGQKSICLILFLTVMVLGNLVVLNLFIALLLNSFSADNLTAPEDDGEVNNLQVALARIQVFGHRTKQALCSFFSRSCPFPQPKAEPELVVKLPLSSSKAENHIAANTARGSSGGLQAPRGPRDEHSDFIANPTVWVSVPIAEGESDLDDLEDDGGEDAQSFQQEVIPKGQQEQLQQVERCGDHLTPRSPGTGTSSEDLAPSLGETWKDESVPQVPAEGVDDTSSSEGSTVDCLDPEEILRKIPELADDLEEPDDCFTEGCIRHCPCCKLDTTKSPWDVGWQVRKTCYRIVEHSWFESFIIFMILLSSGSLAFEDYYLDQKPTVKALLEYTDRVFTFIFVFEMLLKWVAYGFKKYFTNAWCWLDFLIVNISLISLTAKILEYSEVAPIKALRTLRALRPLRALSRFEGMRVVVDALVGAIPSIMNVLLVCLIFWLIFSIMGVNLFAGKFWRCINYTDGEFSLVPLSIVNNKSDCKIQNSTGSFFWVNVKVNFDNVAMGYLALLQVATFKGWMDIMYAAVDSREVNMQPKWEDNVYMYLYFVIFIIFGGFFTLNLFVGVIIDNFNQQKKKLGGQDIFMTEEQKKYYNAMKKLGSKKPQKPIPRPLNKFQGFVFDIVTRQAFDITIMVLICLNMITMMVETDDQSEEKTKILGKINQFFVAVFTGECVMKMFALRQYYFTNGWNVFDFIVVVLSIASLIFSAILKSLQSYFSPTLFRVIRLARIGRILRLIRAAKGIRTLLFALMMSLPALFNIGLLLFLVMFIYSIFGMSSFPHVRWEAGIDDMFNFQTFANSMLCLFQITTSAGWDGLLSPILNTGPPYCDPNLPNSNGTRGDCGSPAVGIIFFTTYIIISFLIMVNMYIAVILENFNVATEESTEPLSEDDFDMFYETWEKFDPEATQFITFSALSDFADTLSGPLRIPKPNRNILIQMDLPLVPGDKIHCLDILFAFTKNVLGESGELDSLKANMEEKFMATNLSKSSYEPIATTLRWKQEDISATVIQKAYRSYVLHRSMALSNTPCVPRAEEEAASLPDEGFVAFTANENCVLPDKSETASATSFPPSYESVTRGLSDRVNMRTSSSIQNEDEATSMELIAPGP

In this assay the target is human NaV 1.8 (Homo sapiens, UniProt Q9Y5Y9). As to the kind of experiment: E-VIPR assay for detecting and measuring NaV inhibition properties. Format: cell-based. The settings on record: E-VIPR assay conducted in the presence of human serum; HEK cells expressing truncated human NaV 1.8; read-out: IC50. The essentials:
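Membrane-potential (coumarin/oxonol) readout after 10 s of 10 Hz biphasic electrical stimulation on E-VIPR. Compounds: 11-point 3-fold dilutions, […], 0.625% DMSO, 30 min at room temperature, human serum optional. Cells: HEK expressing truncated human NaV1.8 co-transduced with KIR2.1.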
With `[2H]C([2H])([2H])Oc1cc(OC(F)(F)F)ccc1Oc1cc(-c2ccccc2C(F)(F)F)cc(F)c1C(=O)Nc1ccnc(C(N)=O)c1` [Compound 95, 4-[[2-fluoro-6-[2-(trideuteriomethoxy)-4-(trifluoromethoxy)phenoxy]-4-[2-(trifluoromethyl)phenyl]benzoyl]amino]pyridine-2-carboxamide], the IC50 came out at 140 nM.

With `[2H]C([2H])([2H])Oc1cc(OC(F)(F)F)ccc1Oc1cc(C2CCCC2)cc(F)c1C(=O)Nc1ccnc(C(N)=O)c1` [Compound 96, 4-[[4-Cyclopentyl-2-Fluoro-6-[2-(Trideuteriomethoxy)-4-(Trifluoromethoxy)Phenoxy]Benzoyl]Amino]Pyridine-2-Carboxamide], the IC50 is 13 nM. To `[2H]C([2H])([2H])Oc1cc(OC(F)(F)F)ccc1Oc1cc(C2CCCCC2)cc(F)c1C(=O)Nc1ccnc(C(N)=O)c1` [Compound 97] belongs 14 nM; to `[2H]C([2H])([2H])Oc1cc(OC(F)(F)F)ccc1Oc1cc(C2CCC(F)(F)CC2)cc(F)c1C(=O)Nc1ccnc(C(N)=O)c1` [Compound 98], 23 nM; to `[2H]C([2H])([2H])Oc1cc(OC(F)(F)F)ccc1Oc1cc(C(F)(F)F)c(F)cc1C(=O)Nc1ccnc(C(N)=O)c1` [Compound 99, 4-[[5-fluoro-2-[2-(trideuteriomethoxy)-4-(trifluoromethoxy)phenoxy]-4-(trifluoromethyl)benzoyl]amino]pyridine-2-carboxamide], 380 nM. The same measure for `[2H]C([2H])([2H])Oc1cc(OC(F)(F)F)ccc1Oc1cc(C(F)(F)F)c(F)cc1C(=O)Nc1ccc(C(N)=O)nc1` [Compound 100, 5-[[5-fluoro-2-[2-(trideuteriomethoxy)-4-(trifluoromethoxy)phenoxy]-4-(trifluoromethyl)benzoyl]amino]pyridine-2-carboxamide]: 630 nM; for `Cc1cc(F)ccc1Oc1ccc(C(F)(F)F)c(F)c1C(=O)Nc1ccc(C(N)=O)nc1` [Compound 101, 5-[[2-fluoro-6-(4-fluoro-2-methyl-phenoxy)-3-(trifluoromethyl)benzoyl]amino]pyridine-2-carboxamide]: 525 nM; for `Cc1cc(F)ccc1Oc1ccc(C(F)(F)F)c(F)c1C(=O)Nc1ccnc(C(N)=O)c1` [Compound 102, 4-[[2-fluoro-6-(4-fluoro-2-methyl-phenoxy)-3-(trifluoromethyl)benzoyl]amino]pyridine-2-carboxamide]: 36 nM. To `COc1cc(F)ccc1Oc1ccc(C(F)(F)F)c(F)c1C(=O)Nc1ccnc(C(N)=O)c1` [Compound 103, 4-[[2-fluoro-6-(4-fluoro-2-methoxy-phenoxy)-3-(trifluoromethyl)benzoyl]amino]pyridine-2-carboxamide] belongs 13 nM.

`COc1cc(F)ccc1Oc1ccc(C(F)(F)F)c(F)c1C(=O)Nc1ccc(C(N)=O)nc1` [Compound 104, 5-[[2-fluoro-6-(4-fluoro-2-methoxy-phenoxy)-3-(trifluoromethyl)benzoyl]amino]pyridine-2-carboxamide]: the IC50 was determined as 380 nM. The same measure for `[2H]C([2H])([2H])Oc1cc(OC(F)(F)F)ccc1Oc1ccc(C(F)(F)F)cc1C(=O)Nc1ccnc(C(N)=O)c1` [Compound 105, 4-[[2-[2-(trideuteriomethoxy)-4-(trifluoromethoxy)phenoxy]-5-(trifluoromethyl)benzoyl]amino]pyridine-2-carboxamide]: 73 nM. To `[2H]C([2H])([2H])Oc1cc(OC(F)(F)F)ccc1Oc1ccc(C(F)(F)F)cc1C(=O)Nc1ccc(C(N)=O)nc1` [Compound 106] belongs 1400 nM; to `NC(=O)c1cc(NC(=O)c2ccc(C(F)(F)F)cc2Oc2ccc(F)c(Cl)c2)ccn1` [Compound 107, 4-[[2-(3-chloro-4-fluoro-phenoxy)-4-(trifluoromethyl)benzoyl]amino]pyridine-2-carboxamide], 2380 nM.

On to `CC(C)Oc1ccc(Oc2cc(C(F)(F)F)ccc2C(=O)Nc2ccnc(C(N)=O)c2)cc1Cl` [Compound 108, 4-[[2-(3-chloro-4-isopropoxy-phenoxy)-4-(trifluoromethyl)benzoyl]amino]pyridine-2-carboxamide], for which the IC50 is > 3000 nM. The same measure for `NC(=O)c1cc(NC(=O)c2ccc(C(F)(F)F)cc2Oc2ccc(OC3CCCCC3)cc2)ccn1` [Compound 109, 4-[[2-[4-(cyclohexoxy)phenoxy]-4-(trifluoromethyl)benzoyl]amino]pyridine-2-carboxamide]: > 3000 nM; for `NC(=O)c1cc(NC(=O)c2ccc(C(F)(F)F)cc2Oc2cccc(C3CCCCC3)c2)ccn1` [Compound 110, 4-[[2-(3-cyclohexylphenoxy)-4-(trifluoromethyl)benzoyl]amino]pyridine-2-carboxamide]: > 3000 nM; for `NC(=O)c1cc(NC(=O)c2ccc(C(F)(F)F)cc2Oc2ccc(F)cc2F)ccn1` [Compound 111, 4-[[2-(2,4-difluorophenoxy)-4-(trifluoromethyl)benzoyl]amino]pyridine-2-carboxamide]: > 3000 nM. The same measure for `CC(F)(F)c1cc(F)ccc1Oc1cc(C(F)(F)F)ccc1C(=O)Nc1ccnc(C(N)=O)c1` [Compound 112, 4-[[2-[2-(1,1-difluoroethyl)-4-fluoro-phenoxy]-4-(trifluoromethyl)benzoyl]amino]pyridine-2-carboxamide]: > 3000 nM. The same measure for `Cc1cc(F)ccc1Oc1cc(C(F)(F)F)ccc1C(=O)Nc1ccnc(C(N)=O)c1` [Compound 113, 4-[[2-(4-fluoro-2-methyl-phenoxy)-4-(trifluoromethyl)benzoyl]amino]pyridine-2-carboxamide]: > 3000 nM; for `[2H]C([2H])([2H])Oc1cc(OC(F)(F)F)ccc1Oc1ccc2c(c1C(=O)Nc1ccnc(C(N)=O)c1)OC(F)(F)O2` [Compound 114, 4-[[2,2-difluoro-5-[2-(trideuteriomethoxy)-4-(trifluoromethoxy)phenoxy]-1,3-benzodioxole-4-carbonyl]amino]pyridine-2-carboxamide]: 510 nM. As to `[2H]C([2H])([2H])Oc1cc(OC(F)(F)F)ccc1Oc1ccc2c(c1C(=O)Nc1ccc(C(N)=O)nc1)OC(F)(F)O2` [Compound 115], the IC50 was > 3000 nM. To `[2H]C([2H])([2H])Oc1cc(OC(F)(F)F)ccc1Oc1ccc(C(F)(F)F)c(C)c1C(=O)Nc1ccc(C(N)=O)nc1` [Compound 116, 5-[[2-methyl-6-[2-(trideuteriomethoxy)-4-(trifluoromethoxy)phenoxy]-3-(trifluoromethyl)benzoyl]amino]pyridine-2-carboxamide] belongs 25 nM.

In the case of `[2H]C([2H])([2H])Oc1cc(OC(F)(F)F)ccc1Oc1ccc(C(F)(F)F)c(C)c1C(=O)Nc1ccnc(C(N)=O)c1` [Compound 117], the IC50 came to 2 nM.

For `COc1c(Oc2ccc(C(F)(F)F)c(F)c2C(=O)Nc2ccc(C(N)=O)nc2)ccc(F)c1F` [Compound 118, 5-[[6-(3,4-difluoro-2-methoxy-phenoxy)-2-fluoro-3-(trifluoromethyl)benzoyl]amino]pyridine-2-carboxamide], the concentration for half-maximal inhibition (IC50) was determined as 695 nM. The same measure for `COc1cc(OC(F)(F)F)ccc1Oc1cc(Br)cc(F)c1C(=O)Nc1ccnc(C(N)=O)c1` [Compound 119, 4-[[4-bromo-2-fluoro-6-[2-methoxy-4-(trifluoromethoxy)phenoxy]benzoyl]amino]pyridine-2-carboxamide]: 8 nM. The same measure for `COc1c(Oc2ccc(C(F)(F)F)c(C)c2C(=O)Nc2ccnc(C(N)=O)c2)ccc(F)c1F` [Compound 120, 4-[[6-(3,4-difluoro-2-methoxy-phenoxy)-2-methyl-3-(trifluoromethyl)benzoyl]amino]pyridine-2-carboxamide]: 20 nM; for `Cc1c(C(F)(F)F)ccc(Oc2ccc(OC(C)C)c(F)c2F)c1C(=O)Nc1ccnc(C(N)=O)c1` [Compound 121, 4-[[6-(2,3-difluoro-4-isopropoxy-phenoxy)-2-methyl-3-(trifluoromethyl)benzoyl]amino]pyridine-2-carboxamide]: 16 nM; for `Cc1c(C(F)(F)F)ccc(Oc2ccc(F)cc2Cl)c1C(=O)Nc1ccnc(C(N)=O)c1` [Compound 122, 4-[[6-(2-chloro-4-fluoro-phenoxy)-2-methyl-3-(trifluoromethyl)benzoyl]amino]pyridine-2-carboxamide]: 25 nM.

As for `Cc1c(C(F)(F)F)ccc(Oc2ccc(OC(F)(F)F)cc2)c1C(=O)Nc1ccnc(C(N)=O)c1` [Compound 123, 4-[[2-methyl-6-[4-(trifluoromethoxy)phenoxy]-3-(trifluoromethyl)benzoyl]amino]pyridine-2-carboxamide], the half-maximal inhibitory concentration (IC50) stood at 53 nM. In the case of `Cc1c(C(F)(F)F)ccc(Oc2ccc(OC(C)C)c(Cl)c2)c1C(=O)Nc1ccnc(C(N)=O)c1` [Compound 124, 4-[[6-(3-chloro-4-isopropoxy-phenoxy)-2-methyl-3-(trifluoromethyl)benzoyl]amino]pyridine-2-carboxamide], the IC50 was determined as 16 nM. To `Cc1c(C(F)(F)F)ccc(Oc2ccc(F)c3c2OCC3)c1C(=O)Nc1ccnc(C(N)=O)c1` [Compound 125, 4-[[6-[(4-fluoro-2,3-dihydrobenzofuran-7-yl)oxy]-2-methyl-3-(trifluoromethyl)benzoyl]amino]pyridine-2-carboxamide] belongs 140 nM; to `Cc1c(C(F)(F)F)ccc(Oc2ccc(F)c(F)c2)c1C(=O)Nc1ccnc(C(N)=O)c1` [Compound 126, 4-[[6-(3,4-difluorophenoxy)-2-methyl-3-(trifluoromethyl)benzoyl]amino]pyridine-2-carboxamide], 180 nM.

For the compound `Cc1c(C(F)(F)F)ccc(Oc2ccc(F)c(Cl)c2)c1C(=O)Nc1ccnc(C(N)=O)c1` [Compound 127, 4-[[6-(3-chloro-4-fluoro-phenoxy)-2-methyl-3-(trifluoromethyl)benzoyl]amino]pyridine-2-carboxamide], the IC50 was 150 nM.

The IC50 is the concentration at which inhibition is half-maximal.
